Like-named read-outs stand apart in the source and are kept apart here. Positions of bridges follow the written chain, without caps; N, C: chain ends. Non-standard residues stand in square brackets, D forms with d. Residues, ends and D or L forms follow the SMILES beside them. *: point of attachment. NMePhe(4-NMe2) = CN[C@@H](Cc1ccc(N(C)C)cc1)C(=O)O; Pip(4-oxo) = O=C1CCN[C@H](C(=O)O)C1; d(aThr) = C[C@@H](O)[C@@H](N)C(=O)O; Picolinoyl(3-OH) = O=C(c1ncccc1O)*; Phg = N[C@H](C(=O)O)c1ccccc1; X1 = CCCCCCCCCCCC(O)CC(=O)*; dAbu = CC[C@@H](N)C(=O)O; GABA = NCCCC(=O)O
Test system: Trichomonas vaginalis G3 trophozoites
Conditions: for T.vaginalis_Absorbance_Rep1: replicate 1, raw absorbance; for T.vaginalis_Absorbance_Rep2: replicate 2, raw absorbance; for T. vaginalis HTS result in words: 384-well, 25 μL, 10,000 cells/mL, 48 h, biological duplicates, hit = >50% inhibition
[1] = HTS replicate 1, parasite screen 1 µg/mL
[2] = HTS replicate 2, parasite screen 1 µg/mL
[3] = HTS, parasite screen at 1 µg/mL, replicate 1
[4] = HTS, parasite screen at 1 µg/mL
[5] = HTS, parasite screen at 1 µg/mL, replicate 2

Molecule | T.vaginalis_%inb_Rep1 [3] | T.vaginalis_Absorbance_Rep1 [4] | T.vaginalis_%inb_Rep2 [5] | T.vaginalis_Absorbance_Rep2 [4] | further results
CC1=C[C@H]2C(=O)O[C@H]3C[C@@H](C/C=C(\C)C[C@@H](C)/C=C/C=C4\CO[C@H](/C1=N/O)[C@@]42O)O[C@@]1(CC[C@H](C)[C@@H](C)O1)C3 [Milbemycin A3 oxime] |  |  |  |  | T.vaginalis_%inb_Rep1 [1]: 12.78%; T.vaginalis_%inb_Rep2 [2]: 11.35%
CCCCCCC(C)C/C(C)=C\C(/C=C(C)/C=C/C(O)C(C)(C)c1cc(O)c([C@@H]2O[C@H](CO)C[C@H](O)[C@H]2O)c(=O)o1)CO (stereo partly shown) [Fusapyrone] | 13.39% | 0.966 | 13.21% | 0.841 | 
COc1ccc([C@@]2(O)c3c(ccc(/C=C/[C@]4(C)CCC(C)(C)CO4)c3O)NC(=O)[C@@H]2OC)cc1 [Penigequinolone A] |  |  |  |  | T.vaginalis_%inb_Rep1 [1]: 16.23%; T.vaginalis_%inb_Rep2 [2]: 11.87%
C=C[C@]1(C)C[C@@H](O)[C@]2(C)[C@H](C)CC[C@]3(CCC(=O)[C@H]32)[C@@H](C)[C@@H]1O [Mutilin] |  |  |  |  | T.vaginalis_%inb_Rep1 [1]: 12.02%; T.vaginalis_%inb_Rep2 [2]: 13.21%
CC[C@H](C)[C@@H]1OC(=O)C(C)(C)[C@@H](O)[C@@H](Cc2ccccc2)OC(=O)[C@H](C(C)C)OC(=O)[C@@H](NC(=O)c2cccc(NC=O)c2O)[C@H](C)OC1=O [Neoantimycin] |  |  |  |  | T.vaginalis_%inb_Rep1 [1]: 13.59%; T.vaginalis_%inb_Rep2 [2]: 11.67%
CC[C@H]1NC(=O)[C@@H](NC(=O)c2ncccc2O)[C@@H](C)OC(=O)[C@H](c2ccccc2)NC(=O)[C@@H]2CC(=O)CCN2C(=O)[C@H](Cc2ccc(N(C)C)cc2)N(C)C(=O)[C@@H]2CCCN2C1=O [Virginiamycin B] ({Picolinoyl(3-OH)}-T[dAbu]P[NMePhe(4-NMe2)][Pip(4-oxo)][Phg]; ester 1-C) | 8.39% |  | 11.09% |  | 
CC(=O)c1c(O)c(C(C)=O)c(O)c(C(C)=O)c1O [Triacetylphloroglucinol] | 10.38% |  | 10.12% |  | 
CCC1OC2(CCC1C)CC1CC(CC=C(C)CC(C)C=CC=C3COC4C(=NO)C(C)=CC(C(=O)O1)C34O)O2 (stereo not shown) [Milbemycin A4 oxime] |  |  |  |  | T.vaginalis_%inb_Rep1 [1]: 13.39%; T.vaginalis_%inb_Rep2 [2]: 13.53%
CC(=O)OC1CCC2(C)C3=C(CCC2C1(C)C)C1(C)CCC(C(C)CCC=C(C)C)C1(C)CC3 (stereo not shown) [Euphol acetate] | 13.30% | 0.956 | 13.02% | 0.8 | 
COC1=C(O)c2c(O)cc(C)c3c(O)cc(O)c(c23)C1=O [Funalenone] | 14.50% | 0.988 | 12.96% | 0.837 | 
COc1cccc2nc3c(OC)cccc3nc12 [Dimethoxyphenazine, 1,6-] | 12.87% | 0.948 | 14.10% | 0.815 | 
CC(C)=CC(=O)CC(C)c1ccc(C)cc1 (stereo not shown) [Turmerone] | 9.33% |  | 14.44% |  | 
CC(=O)OCc1c(O)c2c(c3c1OC(=O)c1c(C)cc(O)c(C=O)c1O3)C(O)OC2=O (stereo not shown) [Galbinic acid] | 15.37% | 1.005 | 12.89% | 0.836 | 
CN[C@@H]1C[C@H]2O[C@@](C)([C@@H]1OC)n1c3ccccc3c3c4c(c5c6ccccc6n2c5c31)C(=O)NC4 [staurosporine, reference compound] |  |  |  |  | T. vaginalis HTS result in words: supported the anti-trichomonal activity
C/C=C(\C)c1cc(O)c(C)c2c1Oc1cc(O)cc(C)c1C(=O)O2 [Unguinol] | 8.70% |  | 4.39% |  | 
CC[C@]1(C)C[C@@H](OC(=O)CO)[C@]2(C)[C@H](C)CC[C@]3(CCC(=O)[C@H]32)[C@@H](C)[C@@H]1O [Dihydropleuromutilin] | 14.27% | 0.974 | 13.23% | 0.803 | 
CO[C@H]1C[C@H](O[C@H]2[C@H](C)O[C@@H](O[C@@H]3/C(C)=C/C[C@@H]4C[C@@H](C[C@]5(C=C[C@H](C)[C@@H](C6CCCCC6)O5)O4)OC(=O)[C@@H]4C=C(C)[C@@H](O)[C@H]5OC/C(=C\C=C\[C@@H]3C)[C@]54O)C[C@@H]2OC)O[C@@H](C)[C@@H]1O [Doramectin] | 11.20% | 0.917 | 11.21% | 0.775 | 
CC1=C[C@H]2C(=O)O[C@H]3C[C@@H](C/C=C(\C)C[C@@H](C)/C=C/C=C4\CO[C@H]([C@@H]1O)[C@@]42O)O[C@@]1(CC[C@H](C)[C@@H](C)O1)C3 [Milbemycin A3] |  |  |  |  | T.vaginalis_%inb_Rep1 [1]: 11.05%; T.vaginalis_%inb_Rep2 [2]: 8.85%
CC(C)C[C@@H]1NC(=O)[C@@H](C(C)C)NC(=O)[C@@H](C)NC(=O)CCCNC(=O)[C@@H](Cc2c[nH]c3ccccc23)NC(=O)[C@@H](C)NC(=O)[C@@H](C(C)C)NC1=O [Unguisin B] (cyclo([GABA][dA][dV]L[dV][dA][dW])) | 10.17% |  | 14.69% |  | 

Molecule | T.vaginalis_%inb_Rep1 [3] | T.vaginalis_Absorbance_Rep1 [4] | T.vaginalis_%inb_Rep2 [5] | T.vaginalis_Absorbance_Rep2 [4] | further results
COc1c(OC)c(-c2c[nH]c3ccc(O)cc23)c(OC)c(OC)c1-c1c[nH]c2ccccc12 [Petromurin C] |  |  |  |  | T.vaginalis_%inb_Rep1 [1]: 7.91%; T.vaginalis_%inb_Rep2 [2]: 12.64%
C=C1CC[C@H]2C(C)(C)CCC[C@]2(C)[C@H]1C[C@@]12C[C@H]3C(=O)N[C@@H](CC(C)C)C(=O)N3[C@@H]1Nc1ccccc12 [Drimentine A] | 15.46% | 0.996 | 4.92% | 0.688 | 
CCCCCCCCCCCC(O)CC(=O)N[C@@H](CC(C)C)C(=O)N[C@H](CCC(=O)O)C(=O)N[C@H]1C(=O)N[C@H](C(C)C)C(=O)N[C@@H](CC(C)C)C(=O)N[C@H](CO)C(=O)N[C@@H](CC(C)C)C(=O)N[C@@H](CC(C)C)C(=O)N[C@H](CO)C(=O)N[C@@H](C(C)C)C(=O)O[C@@H]1C (stereo partly shown) [Orfamide B] (X1-L[dE][d(aThr)][dV]L[dS]LL[dS]V; ester 3-C) |  |  |  |  | T.vaginalis_%inb_Rep1 [1]: 16.23%; T.vaginalis_%inb_Rep2 [2]: 12.19%
CC1=C[C@H]2O[C@@H]3[C@H](O)[C@@H](O)[C@](C)([C@@]2(CO)[C@H](O)C1=O)[C@]31CO1 [Nivalenol] |  |  |  |  | T.vaginalis_%inb_Rep1: 9.96%; T.vaginalis_%inb_Rep2: 14.26%
COC(=O)C1(O)CC2OC1(C)n1c3ccccc3c3c4c(c5c6ccccc6n2c5c31)C(=O)NC4 (stereo not shown) [K252A, reference compound] |  |  |  |  | T. vaginalis HTS result in words: active analogues
COC1=C(OC)C(=O)C(C)C(C)C1=O (stereo not shown) [Gliorosein] | 13.24% | 0.963 | 15.33% | 0.874 | 
Cn1c(=O)c(=Cc2ccccc2)[nH]c(=O)c1=Cc1ccccc1 [Piperafizine A] |  |  |  |  | T.vaginalis_%inb_Rep1 [1]: 11.87%; T.vaginalis_%inb_Rep2 [2]: 11.10%
CN[C@@H]1C[C@H]2O[C@@](C)([C@@H]1OC)n1c3ccccc3c3c4c(c5c6ccccc6n2c5c31)C(=O)NC4=O [7-oxostaurosporine, reference compound] |  |  |  |  | T. vaginalis HTS result in words: active analogues
CO[C@H]1C[C@H](O[C@H]2[C@H](C)O[C@@H](O[C@@H]3/C(C)=C/C[C@@H]4C[C@@H](C[C@]5(C=C[C@H](C)[C@@H](C6CCCCC6)O5)O4)OC(=O)C4=C[C@H](C)[C@@H](O)[C@H]5OC/C(=C\C=C[C@@H]3C)[C@@]45O)C[C@@H]2OC)O[C@@H](C)[C@@H]1O [Doramectin, delta2-] | 13.79% | 0.965 | 15.04% | 0.828 | 
COc1ccc(C[C@H]2NC[C@H](O)[C@H]2OC(C)=O)cc1 [anisomycin, reference compound] |  |  |  |  | T. vaginalis HTS result in words: supported the anti-trichomonal activity
C/C=C\C=C\[C@@H]1O[C@](O)([C@H](CO[C@H]2C[C@@H](OC)[C@@H](O[C@@H]3C[C@@H](OC)[C@@H](O[C@H]4C[C@H](OC)[C@H](O)[C@H](C)O4)[C@H](C)O3)[C@@H](C)O2)C(=O)NC/C=C/C=C(\C)[C@@H](OC)[C@H](C)[C@H]2C[C@H](O)[C@H](/C=C/C=C/C=C/C(=O)O)O2)[C@H](OC(=O)Cc2ccccc2)[C@H](O)C1(C)C [Phenelfamycin E] |  |  |  |  | T.vaginalis_%inb_Rep1 [1]: 11.16%; T.vaginalis_%inb_Rep2 [2]: 10.07%
CC[C@H]1OC(=O)[C@H](C)[C@@H](O[C@H]2C[C@@](C)(OC)[C@@H](O)[C@H](C)O2)[C@H](C)[C@@H](O[C@@H]2O[C@H](C)C[C@H](N(C)C)[C@H]2O)[C@](C)(O)C[C@@H](C)C(=O)[C@H](C)[C@@H](O)[C@H]1C [Erythromycin B] | 4.47% | 0.792 | 1.66% | 0.643 | 
Enniatin A |  | 0.983 |  | 0.865 | 
C=C1CC[C@H]2C(C)(C)CCC[C@]2(C)[C@H]1C[C@@]12C[C@H]3C(=O)N4CCC=C4C(=O)N3[C@@H]1Nc1ccccc12 [Drimentine B] | 15.40% | 0.995 | 15.26% | 0.831 | 
CC(=O)Nc1c2sscc-2n(C)c1=O [thiolutin, reference compound] |  |  |  |  | T. vaginalis HTS result in words: supported the anti-trichomonal activity
CC1=C[C@H]2C(=O)O[C@H]3C[C@@H](C/C=C(\C)[C@@H](O)[C@@H](C)/C=C/C=C4\CO[C@H]([C@@H]1O)[C@@]42O)O[C@@]1(C=C[C@H](C)[C@@H](C2CCCCC2)O1)C3 [Doramectin aglycone] | 13.62% | 0.962 | 12.44% | 0.792 | 
CCCCCC(=O)C(CCCC)c1oc(=O)c(CCCC)c(O)c1CCCC (stereo not shown) [Elasnin] | 13.95% | 0.968 | 11.14% | 0.774 | 
Cc1ccc2c(c1O)C(=O)c1c(cc(O)c(C(=O)O)c1C)[C@]2(C)OO[C@@]1(C)c2cc(O)c(C(=O)O)c(C)c2C(=O)c2c1ccc(C)c2O [Oxanthromicin, (+)] |  |  |  |  | T.vaginalis_%inb_Rep1 [1]: 15.31%; T.vaginalis_%inb_Rep2 [2]: 5.45%

From paper PMC7897990, “TriTOX: A novel Trichomonas vaginalis assay platform for high-throughput screening of compound libraries” (International Journal for Parasitology: Drugs and Drug …, 2021)
